Numbered stars: 1 amine (or outer) side, 2 acyl side, 3 side chain; on linkers, the order of the positions; unused ones are H or OH. Bridge positions count the residues as written; N and C are the ends. Square brackets hold non-standard residues; d marks the D form. Side chains are listed from the residue outwards. Peptide text beside a SMILES is read from it. * marks the point of attachment. Trp(1-Me,7-Cl) = Cn1cc(C[C@H](N)C(=O)O)c2cccc(Cl)c21; dPhe(3-CONH2) = NC(=O)c1cccc(C[C@@H](N)C(=O)O)c1; NMePhe(4-Cl) = CN[C@@H](Cc1ccc(Cl)cc1)C(=O)O; Piperazinyl(4-CH2COOH) = O=C(O)CN1CCN(*)CC1; Trp(1-Me) = Cn1cc(C[C@H](N)C(=O)O)c2ccccc21; NMe3Pal = CN[C@@H](Cc1cccnc1)C(=O)O; NMeF = CN[C@@H](Cc1ccccc1)C(=O)O; Gly(cBu) = N[C@H](C(=O)O)C1CCC1; NMeE = CN[C@@H](CCC(=O)O)C(=O)O; Aad = N[C@@H](CCCC(=O)O)C(=O)O; NMeN = CN[C@@H](CC(N)=O)C(=O)O; dAhp(2) = CCCCC[C@@H](N)C(=O)O; Chg = N[C@H](C(=O)O)C1CCCCC1; CO = O=C([*:1])[*:2]
molecular target: T1, Recombinant Human EphA2 Fc Protein (Homo sapiens, UniProt P29317); test: SPR interaction analysis (Biacore T200), kinetics of peptides against EphA2; type: binding; conditions: Recombinant Human EphA2 Fc Protein captured by Human Antibody Capture kit; single-cycle kinetics; 25° C.; HBS-P+ buffer with 1% DMSO
T1 construct: purchased Elabscience
Procedure, shortened: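 On a Biacore T200 at 25° C, Fc-tagged human EphA2 was captured via anti-human antibody; peptides ran as five serial dilutions in HBS-P+ pH 7.4 with 1% DMSO by single-cycle kinetics. Baseline-subtracted data fitted for ka and kd, from which KD was derived.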

Row | SMILES | Kd [nM]
1 | CC(C)C[C@@H]1NC(=O)[C@H](CC(N)=O)NC(=O)[C@H](Cc2cccnc2)N(C)C(=O)[C@@H](C)NC(=O)CSC[C@@H](C(N)=O)NC(=O)[C@H](CCCC(N)=O)NC(=O)[C@H]([C@@H](C)O)NC(=O)[C@H](Cc2cn(C)c3ccccc23)NC(=O)[C@H](CCCCNC(=O)N2CCN(CC(=O)O)CC2)NC(=O)[C@H](Cc2cn(C)c3ccccc23)NC(=O)[C@H](CCC(=O)O)N(C)C(=O)[C@H](CC(=O)N(C)C)NC1=O [PDC_EphA2-00018532, da-Me3Py-N-L-Ndm-MeE-W1Me-KCOpipzaa-W1Me-T-Hgn-C-NH2] ({CH2CO}-[dA][NMe3Pal]NLD(NMe2)[NMeE][Trp(1-Me)]K([CO-Piperazinyl(4-CH2COOH)])[Trp(1-Me)]T[Aad](NH2)C-NH2; thioether N-12) | < 1
2 | CNC(=O)C[C@@H]1NC(=O)[C@H]([C@@H](C)O)NC(=O)[C@H](Cc2cn(C)c3ccccc23)NC(=O)[C@H](CCCCNC(=O)N2CCN(CC(=O)O)CC2)NC(=O)[C@H](Cc2cn(C)c3ccccc23)NC(=O)[C@H](CCC(=O)O)N(C)C(=O)[C@H](CCCC(N)=O)NC(=O)[C@H](CC(C)C)NC(=O)[C@H](CC(N)=O)NC(=O)[C@H](Cc2cccnc2)N(C)C(=O)[C@@H](C)NC(=O)CSC[C@@H](C(N)=O)NC1=O [PDC_EphA2-00018533, da-Me3Py-N-L-Hgn-MeE-W1Me-KCOpipzaa-W1Me-T-Nmm-C-NH2] ({CH2CO}-[dA][NMe3Pal]NL[Aad](NH2)[NMeE][Trp(1-Me)]K([CO-Piperazinyl(4-CH2COOH)])[Trp(1-Me)]TD(NHMe)C-NH2; thioether N-12) | < 1
3 | CC(C)C[C@@H]1NC(=O)[C@H](CC(N)=O)NC(=O)[C@H](Cc2cccnc2)N(C)C(=O)[C@@H](C)NC(=O)CSC[C@@H](C(N)=O)NC(=O)[C@H](CC(=O)N(C)C)NC(=O)[C@H]([C@@H](C)O)NC(=O)[C@H](Cc2cn(C)c3ccccc23)NC(=O)[C@H](CCCCNC(=O)N2CCN(CC(=O)O)CC2)NC(=O)[C@H](Cc2cn(C)c3ccccc23)NC(=O)[C@H](CCC(=O)O)N(C)C(=O)[C@H](CCCC(N)=O)NC1=O [PDC_EphA2-00018534, da-Me3Py-N-L-Hgn-MeE-W1Me-KCOpipzaa-W1Me-T-Ndm-C-NH2] ({CH2CO}-[dA][NMe3Pal]NL[Aad](NH2)[NMeE][Trp(1-Me)]K([CO-Piperazinyl(4-CH2COOH)])[Trp(1-Me)]TD(NMe2)C-NH2; thioether N-12) | < 1
4 | CCCCC[C@H]1NC(=O)CSC[C@@H](C(N)=O)NC(=O)[C@H](CCCC(N)=O)NC(=O)[C@H]([C@@H](C)O)NC(=O)[C@H](Cc2cn(C)c3ccccc23)NC(=O)[C@H](CCCCNC(=O)N2CCN(CC(=O)O)CC2)NC(=O)[C@H](Cc2cn(C)c3ccccc23)NC(=O)[C@H](Cc2ccccc2)N(C)C(=O)[C@H](CCCC(N)=O)NC(=O)[C@H](C2CCCCC2)NC(=O)[C@H](CC(N)=O)NC(=O)[C@H](Cc2cccnc2)N(C)C1=O [PDC_EphA2-00018535, dahp-Me3Py-N-Chg-Hgn-MeF-W1Me-KCOpipzaa-W1Me-T-Hgn-C-NH2] ({CH2CO}-[dAhp(2)][NMe3Pal]N[Chg][Aad](NH2)[NMeF][Trp(1-Me)]K([CO-Piperazinyl(4-CH2COOH)])[Trp(1-Me)]T[Aad](NH2)C-NH2; thioether N-12) | < 1
5 | CNC(=O)C[C@@H]1NC(=O)[C@H](C2CCCCC2)NC(=O)[C@H](CC(N)=O)NC(=O)[C@H](Cc2cccnc2)N(C)C(=O)[C@@H](C)NC(=O)CSC[C@@H](C(N)=O)NC(=O)[C@H](CCCC(N)=O)NC(=O)[C@H]([C@@H](C)O)NC(=O)[C@H](Cc2cn(C)c3ccccc23)NC(=O)[C@H](CCCCNC(=O)N2CCN(CC(=O)O)CC2)NC(=O)[C@H](Cc2cn(C)c3ccccc23)NC(=O)[C@H](Cc2ccccc2)N(C)C1=O [PDC_EphA2-00018536, da-Me3Py-N-Chg-Nmm-MeF-W1Me-KCOpipzaa-W1Me-T-Hgn-C-NH2] ({CH2CO}-[dA][NMe3Pal]N[Chg]D(NHMe)[NMeF][Trp(1-Me)]K([CO-Piperazinyl(4-CH2COOH)])[Trp(1-Me)]T[Aad](NH2)C-NH2; thioether N-12) | < 1
6 | C[C@H]1NC(=O)CSC[C@@H](C(N)=O)NC(=O)[C@H](CCCC(N)=O)NC(=O)[C@H]([C@@H](C)O)NC(=O)[C@H](Cc2cn(C)c3ccccc23)NC(=O)[C@H](CCCCNC(=O)N2CCN(CC(=O)O)CC2)NC(=O)[C@H](Cc2cn(C)c3ccccc23)NC(=O)[C@H](Cc2ccccc2)N(C)C(=O)[C@H](CC(=O)N(C)C)NC(=O)[C@H](C2CCCCC2)NC(=O)[C@H](CC(N)=O)NC(=O)[C@H](Cc2cccnc2)N(C)C1=O [PDC_EphA2-00018537, da-Me3Py-N-Chg-Ndm-MeF-W1Me-KCOpipzaa-W1Me-T-Hgn-C-NH2] ({CH2CO}-[dA][NMe3Pal]N[Chg]D(NMe2)[NMeF][Trp(1-Me)]K([CO-Piperazinyl(4-CH2COOH)])[Trp(1-Me)]T[Aad](NH2)C-NH2; thioether N-12) | < 1
7 | C[C@H]1NC(=O)CSC[C@@H](C(N)=O)NC(=O)[C@H](CCCC(N)=O)NC(=O)[C@H]([C@@H](C)O)NC(=O)[C@H](Cc2cn(C)c3ccccc23)NC(=O)[C@H](CCCCNC(=O)N2CCN(CC(=O)O)CC2)NC(=O)[C@H](Cc2cn(C)c3ccccc23)NC(=O)[C@H](Cc2ccc(Cl)cc2)N(C)C(=O)[C@H](CCCC(N)=O)NC(=O)[C@H](C2CCCCC2)NC(=O)[C@H](CC(N)=O)NC(=O)[C@H](Cc2cccnc2)N(C)C1=O [PDC_EphA2-00018538, da-Me3Py-N-Chg-Hgn-MeF4C-W1Me-KCOpipzaa-W1Me-T-Hgn-C-NH2] ({CH2CO}-[dA][NMe3Pal]N[Chg][Aad](NH2)[NMePhe(4-Cl)][Trp(1-Me)]K([CO-Piperazinyl(4-CH2COOH)])[Trp(1-Me)]T[Aad](NH2)C-NH2; thioether N-12) | < 1
8 | CNC(=O)C[C@@H]1NC(=O)[C@H]([C@@H](C)O)NC(=O)[C@H](Cc2cn(C)c3ccccc23)NC(=O)[C@H](CCCCNC(=O)N2CCN(CC(=O)O)CC2)NC(=O)[C@H](Cc2cn(C)c3ccccc23)NC(=O)[C@H](Cc2ccccc2)N(C)C(=O)[C@H](CCCC(N)=O)NC(=O)[C@H](C2CCCCC2)NC(=O)[C@H](CC(N)=O)NC(=O)[C@H](Cc2cccnc2)N(C)C(=O)[C@@H](C)NC(=O)CSC[C@@H](C(N)=O)NC1=O [PDC_EphA2-00018539, da-Me3Py-N-Chg-Hgn-MeF-W1Me-KCOpipzaa-W1Me-T-Nmm-C-NH2] ({CH2CO}-[dA][NMe3Pal]N[Chg][Aad](NH2)[NMeF][Trp(1-Me)]K([CO-Piperazinyl(4-CH2COOH)])[Trp(1-Me)]TD(NHMe)C-NH2; thioether N-12) | < 1
9 | C[C@H]1NC(=O)CSC[C@@H](C(N)=O)NC(=O)[C@H](CC(=O)N(C)C)NC(=O)[C@H]([C@@H](C)O)NC(=O)[C@H](Cc2cn(C)c3ccccc23)NC(=O)[C@H](CCCCNC(=O)N2CCN(CC(=O)O)CC2)NC(=O)[C@H](Cc2cn(C)c3ccccc23)NC(=O)[C@H](Cc2ccccc2)N(C)C(=O)[C@H](CCCC(N)=O)NC(=O)[C@H](C2CCCCC2)NC(=O)[C@H](CC(N)=O)NC(=O)[C@H](Cc2cccnc2)N(C)C1=O [PDC_EphA2-00018540, da-Me3Py-N-Chg-Hgn-MeF-W1Me-KCOpipzaa-W1Me-T-Ndm-C-NH2] ({CH2CO}-[dA][NMe3Pal]N[Chg][Aad](NH2)[NMeF][Trp(1-Me)]K([CO-Piperazinyl(4-CH2COOH)])[Trp(1-Me)]TD(NMe2)C-NH2; thioether N-12) | < 1
10 | CC(C)[C@@H]1NC(=O)[C@H](Cc2cn(C)c3c(Cl)cccc23)NC(=O)[C@H](CC(N)=O)N(C)C(=O)[C@H](CCCC(N)=O)NC(=O)[C@H](C2CCC2)NC(=O)[C@H](CC(N)=O)NC(=O)[C@H](Cc2ccccc2)N(C)C(=O)[C@@H](Cc2cccc(C(N)=O)c2)NC(=O)CSC[C@@H](C(N)=O)NC(=O)[C@H](CCCC(N)=O)NC(=O)[C@H]([C@@H](C)O)NC(=O)[C@H](Cc2cn(C)c3ccccc23)NC1=O [PDC_EphA2-00019421, df3CON-MeF-N-Cbg-Hgn-MeN-W1Me7Cl-V-W1Me-T-Hgn-C-NH2] ({CH2CO}-[dPhe(3-CONH2)][NMeF]N[Gly(cBu)][Aad](NH2)[NMeN][Trp(1-Me,7-Cl)]V[Trp(1-Me)]T[Aad](NH2)C-NH2; thioether N-12) | < 1
11 | CC(C)C[C@@H]1NC(=O)[C@H](CC(N)=O)NC(=O)[C@H](Cc2ccccc2)N(C)C(=O)[C@@H](Cc2cccc(C(N)=O)c2)NC(=O)CSC[C@@H](C(N)=O)NC(=O)[C@H](CCCC(N)=O)NC(=O)[C@H]([C@@H](C)O)NC(=O)[C@H](Cc2cn(C)c3ccccc23)NC(=O)[C@H](C(C)C)NC(=O)[C@H](Cc2cn(C)c3c(Cl)cccc23)NC(=O)[C@H](CC(N)=O)N(C)C(=O)[C@H](CCCC(N)=O)NC1=O [PDC_EphA2-00019422, df3CON-MeF-N-L-Hgn-MeN-W1Me7Cl-V-W1Me-T-Hgn-C-NH2] ({CH2CO}-[dPhe(3-CONH2)][NMeF]NL[Aad](NH2)[NMeN][Trp(1-Me,7-Cl)]V[Trp(1-Me)]T[Aad](NH2)C-NH2; thioether N-12) | < 1
12 | CC(C)C[C@@H]1NC(=O)[C@H](CC(N)=O)NC(=O)[C@H](Cc2ccccc2)N(C)C(=O)[C@@H](Cc2cccc(C(N)=O)c2)NC(=O)CSC[C@@H](C(N)=O)NC(=O)[C@H](CCCC(N)=O)NC(=O)[C@H]([C@@H](C)O)NC(=O)[C@H](Cc2cn(C)c3ccccc23)NC(=O)[C@H](C(C)C)NC(=O)[C@H](Cc2cn(C)c3ccccc23)NC(=O)[C@H](CC(N)=O)N(C)C(=O)[C@H](CCCC(N)=O)NC1=O [PDC_EphA2-00019423, df3CON-MeF-N-L-Hgn-MeN-W1Me-V-W1Me-T-Hgn-C-NH2] ({CH2CO}-[dPhe(3-CONH2)][NMeF]NL[Aad](NH2)[NMeN][Trp(1-Me)]V[Trp(1-Me)]T[Aad](NH2)C-NH2; thioether N-12) | < 1
13 | CC(C)[C@@H]1NC(=O)[C@H](Cc2cn(C)c3c(Cl)cccc23)NC(=O)[C@H](CC(N)=O)N(C)C(=O)[C@H](CCCC(N)=O)NC(=O)[C@H](C2CCC2)NC(=O)[C@H](CC(N)=O)NC(=O)[C@H](Cc2cccnc2)N(C)C(=O)[C@@H](Cc2cccc(C(N)=O)c2)NC(=O)CSC[C@@H](C(N)=O)NC(=O)[C@H](CCCC(N)=O)NC(=O)[C@H]([C@@H](C)O)NC(=O)[C@H](Cc2cn(C)c3ccccc23)NC1=O [PDC_EphA2-00019424, df3CON-Me3Py-N-Cbg-Hgn-MeN-W1Me7Cl-V-W1Me-T-Hgn-C-NH2] ({CH2CO}-[dPhe(3-CONH2)][NMe3Pal]N[Gly(cBu)][Aad](NH2)[NMeN][Trp(1-Me,7-Cl)]V[Trp(1-Me)]T[Aad](NH2)C-NH2; thioether N-12) | < 1

From patent US20260098061A1, “EPHA2-BINDING PENDING PEPTIDE AND COMPOSITION COMPRISING SAME” (PeptiDream Inc., priority 2022, published 2026)
